Several values for one entry are separate records, joined by “and”; a condition that tells them apart may be missing. Equal values may be shown once.
Assays:
[1] = system: human, bovine, porcine, and rat serum albumins; experiment: Fluorescence quenching, statements on all albumins tested together; type: binding; details: albumins 2 μmol/L, mycotoxin 0-10 μmol/L, PBS, λex = 295 nm
Method: (§1) Fluorescence spectroscopic measurements were carried out employing a Hitachi F-4500 fluorescence spectrophotometer (Hitachi, Tokyo, Japan) to investigate the effect of increasing mycotoxin concentrations on the fluorescence signal of albumins as well as on the emission spectrum of warfarin-HSA complex. Our studies were executed in phosphate-buffered saline (PBS, pH 7.4; 8.00 g/L NaCl, 0.20 g/L KCl, 1.81 g/L Na2HPO4 × 2H2O, 0.24 g/L KH2PO4) at room temperature, in the presence of air.
(§2) For spectral correction of fluorescence emission intensities, absorption spectra of mycotoxins were also recorded applying a Jasco-V730 spectrophotometer (Jasco, Tokyo, Japan). The inner-filter effect of mycotoxins was corrected as described previously (Hu and Liu [2015]; Faisal et al. [2018]):1 Icor=Iobs×e^Aex+Aem/2 where Icor and Iobs indicate the corrected and observed fluorescence emission intensities, respectively. Aex and Aem denote the absorbance of mycotoxins at the excitation and emission wavelengths used, respectively.
To investigate the stability of mycotoxin-albumin complexes, mycotoxin-induced quenching effects on the intrinsic fluorescence of albumins were tested. The emission signal of albumins (2 μmol/L; λex = 295 nm; […]) were measured in the presence of increasing concentrations of mycotoxins (0.0, 1.0, 2.0, 3.0, 4.0, 5.0, 6.0, 7.0, 8.0, 9.0, and 10.0 μmol/L). […]

CaCo-2 cells = system: CaCo-2 cells; design: method as in Cirlini et al. 2016; details: ref Cirlini et al. 2016; cited from earlier work
[2] = pigs, cited from earlier work
warfarin-HSA complex = biological target: T1, warfarin-HSA complex (Homo sapiens, UniProt P02768); experiment: Effect of mycotoxins on warfarin-HSA interaction (warfarin fluorescence); type: binding; details: warfarin 1 μmol/L, HSA 3.5 μmol/L, mycotoxin 0-15 μmol/L, PBS pH 7.4, λex = 317 nm
T1 construct: purchased Sigma-Aldrich
Method: as §1, §2
To test the effects of ZEN metabolites on warfarin-HSA interaction, our previously reported method was applied (Faisal et al. [2018]; Fliszár-Nyúl et al. [2019]). In this experiment, the fluorescence emission signal of warfarin (1 μmol/L; λex = 317 nm, λem = 379 nm) was examined in the presence of HSA (3.5 μmol/L) without and with mycotoxins (0, 1, 2, 3, 4, 5, 6, 8, 10, and 15 μmol/L) in PBS (pH 7.4). Under these conditions, approximately 70% of warfarin is albumin-bound.

[3] = design: method as in Sun et al. 2019; details: rats, ref Sun et al. 2019; cited from earlier work
HSA = biological target: T2, HSA (Homo sapiens, UniProt P02768); experiment: High-performance affinity chromatography on HSA-coated column; type: binding; details: Chiralpak HSA column, isopropanol / 0.01 mol/L ammonium acetate pH 7.0 (15:85 v/v%), 0.5 mL/min, room temperature
T2 construct: purchased Daicel Chiralpak HSA, 50 × 3.0 mm, 5 μm
Method: HPAC was performed with a HSA-coated column (Faisal et al. [2018]). The HPLC system (Jasco, Tokyo, Japan) used for the analysis included an autosampler (AS-4050), a binary pump (PU-4180), and a diode-array detector (MD-4017). A 5-μL volume of samples (ZAN: 200 μmol/L; ZEN, α-ZAL, β-ZAL, and Z14S: 100 μmol/L; Z14G: 50 μmol/L) was driven through a pre-column filter (Waters, Milford, MA, USA) linked to an immobilized HSA-coated HPAC column (Chiralpak® HSA, 50 × 3.0 mm, 5 μm; Daicel, Tokyo, Japan). The isocratic elution was performed with 0.5-mL/min flow rate at room temperature. The mobile phase contained isopropanol (HPLC grade; VWR, Debrecen, Hungary) and 0.01 mol/L pH 7.0 ammonium acetate buffer (15:85 v/v%). Mycotoxins were detected at 235 nm, and chromatograms were evaluated with ChromNAV software.

T2 sequence (P02768 25-609): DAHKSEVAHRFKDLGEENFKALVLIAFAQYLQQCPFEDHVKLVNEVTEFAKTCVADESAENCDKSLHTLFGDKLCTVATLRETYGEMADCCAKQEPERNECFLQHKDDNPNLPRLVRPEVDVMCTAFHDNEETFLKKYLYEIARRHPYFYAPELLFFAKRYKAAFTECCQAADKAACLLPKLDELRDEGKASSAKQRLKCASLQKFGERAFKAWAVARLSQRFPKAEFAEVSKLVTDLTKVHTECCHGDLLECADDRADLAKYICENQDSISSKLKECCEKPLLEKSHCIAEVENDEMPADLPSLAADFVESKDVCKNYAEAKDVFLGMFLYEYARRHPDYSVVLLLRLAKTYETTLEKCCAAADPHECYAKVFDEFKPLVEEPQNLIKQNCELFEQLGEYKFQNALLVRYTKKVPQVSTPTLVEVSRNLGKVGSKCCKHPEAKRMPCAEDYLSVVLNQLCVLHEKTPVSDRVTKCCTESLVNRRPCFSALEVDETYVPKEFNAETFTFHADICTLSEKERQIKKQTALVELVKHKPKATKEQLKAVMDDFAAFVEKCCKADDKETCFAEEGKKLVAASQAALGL
T1 sequence (P02768 25-609, one chain of several): as the sequence (P02768 25-609) above

## C[C@H]1CCCC(=O)CCC/C=C/c2cc(O[C@@H]3O[C@H](CO)[C@@H](O)[C@H](O)[C@H]3O)cc(O)c2C(=O)O1 [Z14G, Zearalenone-14-O-β-D-glucoside]
[1]
  effect on the emission signals of albumins (quenching): did not affect the emission signals of albumins
CaCo-2 cells
  absorption in CaCo-2 cell model: considerably lower compared with ZEN
[2]; oral, ref Catteuw et al. 2019
  fraction of the orally administered compound absorbed: approximately 61%
[2]; ref Binder et al. 2017
  intestinal hydrolysis to ZEN after oral administration: complete intestinal hydrolysis to ZEN
warfarin-HSA complex
  effect on fluorescence emission signal of warfarin at 379 nm (warfarin-HSA interaction): did not affect the fluorescence at 379 nm
[3]
  plasma concentrations after oral administration: low plasma concentrations
HSA
  retention time (tR) from HSA-HPAC affinity column: 1.7 min and 1.650 min
